In ChEMBL document CHEMBL3244016, “Isomers of erythro-5-(1-hydroxy-2-isopropylaminobutyl)-8-hydroxycarbostyril, a new bronchodilator” (J Med Chem, 1977):

Legend:
Canis familiaris [1] = test: Increase in heart rate in iv dosed anesthetized mongrel dog relative to l-isoproterenol; format: organism-based, Canis lupus familiaris; conditions: in vivo
Canis familiaris [2] = species on record: Canis familiaris; test: Separation ratio of ED25 for increase in heart rate in mongrel dog to ED50 for inhibition of bronchoconstriction in mongrel dog; parameters: species or system Canis lupus familiaris
Canis familiaris [3] = test: Bronchodilatory activity in iv dosed mongrel dog assessed as inhibition of histamine-induced bronchospasm administered 1 min prior to histamine challenge relative to l-isoproterenol; format: functional, Canis lupus familiaris
Canis familiaris [4] = test: Increase in heart rate in iv dosed anesthetized mongrel dog; format: organism-based, Canis lupus familiaris; conditions: in vivo
Canis familiaris [5] = test: Bronchodilatory activity in iv dosed mongrel dog assessed as inhibition of histamine-induced bronchospasm administered 1 min prior to histamine challenge; format: functional; conditions: Canis lupus familiaris

SMILES	Ratio (Canis familiaris [1])	Ratio (Canis familiaris [2])	Ratio ED50 (Canis familiaris [3])	ED14.5 (Canis familiaris [4]) [µg/kg]	ED25 (Canis familiaris [4]) [µg/kg]	ED50 (Canis familiaris [5]) [µg/kg]	ED19.5 (Canis familiaris [4]) [µg/kg]
CCC(NC(C)C)C(O)c1ccc(O)c2[nH]c(=O)ccc12 (racemic; erythro) [PROCATEROL]	50.5	24.9	2.03	–	–	–	–
CC[C@H](NC(C)C)[C@@H](O)c1ccc(O)c2[nH]c(=O)ccc12	9550	16.9	566	–	–	–	–
CCC(NC(C)C)C(O)c1ccc(O)c2[nH]c(=O)ccc12 (stereo in doubt) [PROCATEROL]	33.2	23.5	1.41	–	–	–	–
CC[C@@H](NC(C)C)[C@H](O)c1ccc(O)c2[nH]c(=O)ccc12	7560	1.84	4110	–	–	–	–
CC[C@@H](NC(C)C)[C@@H](O)c1ccc(O)c2[nH]c(=O)ccc12	–	–	18500	3000	–	–	–
CC(C)NCC(O)c1ccc(O)c(O)c1 (stereo not drawn) [ISOPROTERENOL]	–	–	–	–	0.019	0.069	–
CCC(NC(C)C)C(O)c1ccc(O)c2[nH]c(=O)ccc12 (racemic; threo) [PROCATEROL]	–	–	148	–	–	–	300
